Measured values taken from EPA's ToxRefDB 2.

Key:
mouse [1] = settings: Sub-acute repeat dose toxicity, b6c3f1, Oral, Gavage/Intubation, dose end: 16 day, group: systemic
rabbit = settings: Sub-acute dermal toxicity, new zealand white, Topical, dose end: 21 day, group: systemic, systemic / pathology gross / skin / scabbing + systemic / pathology microscopic / skin / acanthosis + systemic / pathology microscopic / …
rat [2] = settings: Subchronic oral toxicity in rodents, fischer, Gavage/Intubation, dose end: 13 week, group: systemic
rat [3] = settings: Subchronic oral toxicity in rodents, fischer, Gavage/Intubation, dose end: 13 week, group: systemic; remark: listed apart in the source
rat [4] = settings: Sub-acute repeat dose toxicity, fischer, Oral, Gavage/Intubation, dose end: 16 day, group: systemic
rat [5] = settings: Prenatal developmental toxicity study, wistar, Oral, Gavage/Intubation, dose end: 15 GD
mouse [6] = settings: Carcinogenicity; b6c3f1; Oral; Gavage; dose end: 103 week; group: systemic; systemic / organ weight / kidney / absolute + systemic / pathology microscopic / kidney / nephropathy + systemic / pathology microscopic / …
rat [7] = settings: Prenatal developmental toxicity study, sprague dawley, Oral, Gavage/Intubation, dose end: 15 GD
rat [8] = settings: Combined chronic toxicity/carcinogenicity, fischer, Oral, Gavage/Intubation, dose end: 103 week, group: systemic
[9] = systemic / in life observation / clinical signs / abnormal posture + systemic / in life observation / clinical signs / fur (altered …
[10] = systemic / pathology gross / intestine large / dilatation
[11] = systemic / clinical chemistry / creatinine / creatinine + systemic / clinical chemistry / urea nitrogen / urea nitrogen + systemic / organ …
[12] = systemic / clinical chemistry / creatinine / creatinine + systemic / clinical chemistry / urea nitrogen / urea nitrogen + systemic / …
[13] = systemic / in life observation / clinical signs / alopecia + systemic / in life observation / clinical signs / urogenital staining
[14] = systemic / organ weight / kidney / absolute + systemic / organ weight / kidney / relative to body weight + systemic / pathology microscopic…
[15] = group: developmental, systemic / in life observation / body weight / fetal weight
[16] = group: maternal, systemic / in life observation / body weight / body weight gain
[17] = group: maternal, systemic / in life observation / body weight / body weight gain + systemic / in life observation / clinical signs / mucoid stools + systemic…
[18] = group: developmental, developmental / developmental malformation / general / runts + systemic / in life observation / body weight / fetal weight
[19] = group: maternal, systemic / in life observation / body weight / body weight + systemic / in life observation / body weight / body weight gain + systemic / in…
[20] = systemic / pathology microscopic / kidney / nephropathy + systemic / urinalysis / coporphoryin / coporphoryin

Oc1ccc(Cl)cc1Cc1ccccc1 [Clorophene]
LOAEL (mouse [1]; [9]): > 1000 mg/kg/day
NEL (mouse [1]; [9]): 62.5 mg/kg/day
NOAEL (mouse [1]; [9]): ≥ 1000 mg/kg/day
LEL (mouse [1]; [10]): 125 mg/kg/day
LEL (rabbit): 5 mg/kg/day
LOAEL (rabbit): 5 mg/kg/day
NEL (rabbit): 1 mg/kg/day
NOAEL (rabbit): 1 mg/kg/day
LOAEL (rat [2]; [11]): 240 mg/kg/day
NOAEL (rat [2]; [11]): 120 mg/kg/day
LEL (rat [2]; [12]): 30 mg/kg/day
NEL (rat [2]; [12]): < 30 mg/kg/day
LEL (rat [3]; [13]): 30 mg/kg/day
NEL (rat [3]; [13]): < 30 mg/kg/day
LOAEL (rat [3]; [14]): 480 mg/kg/day
NOAEL (rat [3]; [14]): 240 mg/kg/day
LOAEL (rat [4]; [14]): 1000 mg/kg/day
NOAEL (rat [4]; [14]): 500 mg/kg/day
LEL (rat [4]; [10]): 62.5 mg/kg/day
NEL (rat [4]; [10]): < 62.5 mg/kg/day
LEL (rat [5]; [15]): 375 mg/kg/day
LOAEL (rat [5]; [15]): 375 mg/kg/day
NEL (rat [5]; [15]): 75 mg/kg/day
NOAEL (rat [5]; [15]): 75 mg/kg/day
LEL (rat [5]; [16]): 75 mg/kg/day
LOAEL (rat [5]; [16]): 75 mg/kg/day
NEL (rat [5]; [17]): 15 mg/kg/day
NOAEL (rat [5]; [17]): 15 mg/kg/day
LEL (mouse [6]): 120 mg/kg/day
LOAEL (mouse [6]): 120 mg/kg/day
NEL (mouse [6]): < 120 mg/kg/day
NOAEL (mouse [6]): < 120 mg/kg/day
LEL (rat [7]; [18]): 1000 mg/kg/day
LOAEL (rat [7]; [18]): > 1000 mg/kg/day
NEL (rat [7]; [18]): 300 mg/kg/day
NOAEL (rat [7]; [18]): ≥ 1000 mg/kg/day
LOAEL (rat [7]; [19]): > 1000 mg/kg/day
NEL (rat [7]; [19]): 100 mg/kg/day
NOAEL (rat [7]; [19]): ≥ 1000 mg/kg/day
LEL (rat [7]; group: maternal, systemic / in life observation / body weight / body weight + systemic / in life observation / water consumption / water consumption): 300 mg/kg/day
NEL (rat [8]; systemic / in life observation / clinical signs / urogenital staining + systemic / organ weight / heart / absolute + systemic / organ weight…): 240 mg/kg/day
LOAEL (rat [8]; [20]): 30 mg/kg/day
NOAEL (rat [8]; [20]): < 30 mg/kg/day
